Usually pIC50 stands for −log10 of the IC50, conventionally taken in molar units.

Our source for the IC50 values is paper PMC4411090, “Activating the Wnt/β-Catenin Pathway for the Treatment of Melanoma – Application of LY2090314, a Novel Selective Inhibitor of Glycogen Synthase Kinase-3” (PLoS ONE, 2015).

Assay [1] concerns the target T1, GSK3β (Homo sapiens, UniProt P49841).
T1 construct: gene GSK3B; human recombinant
The assay is described as follows: cell-free kinase assay with recombinant enzyme and phosphopeptide substrate. The assay is classed as biochemical.

In assay [2] the target is T2, GSK3α (Homo sapiens, UniProt P49840).
T2 construct: gene GSK3A; human recombinant
T2 sequence (P49840 2-483): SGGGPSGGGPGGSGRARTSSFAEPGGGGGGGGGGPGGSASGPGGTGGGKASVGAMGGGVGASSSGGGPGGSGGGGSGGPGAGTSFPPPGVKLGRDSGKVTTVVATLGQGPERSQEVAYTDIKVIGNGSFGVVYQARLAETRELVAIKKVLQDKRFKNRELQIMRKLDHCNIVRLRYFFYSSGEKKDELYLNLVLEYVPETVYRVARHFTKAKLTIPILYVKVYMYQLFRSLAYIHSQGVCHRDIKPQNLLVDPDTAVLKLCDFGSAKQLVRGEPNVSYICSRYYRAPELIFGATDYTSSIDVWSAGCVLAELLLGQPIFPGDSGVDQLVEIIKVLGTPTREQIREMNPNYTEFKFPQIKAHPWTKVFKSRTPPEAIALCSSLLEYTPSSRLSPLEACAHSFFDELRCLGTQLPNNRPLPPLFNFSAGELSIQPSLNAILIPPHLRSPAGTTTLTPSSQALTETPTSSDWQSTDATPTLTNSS
The assay is described as above. Type of assay: biochemical.

pIC50: −log10 of the molar value.

T1 sequence (P49841 whole entry): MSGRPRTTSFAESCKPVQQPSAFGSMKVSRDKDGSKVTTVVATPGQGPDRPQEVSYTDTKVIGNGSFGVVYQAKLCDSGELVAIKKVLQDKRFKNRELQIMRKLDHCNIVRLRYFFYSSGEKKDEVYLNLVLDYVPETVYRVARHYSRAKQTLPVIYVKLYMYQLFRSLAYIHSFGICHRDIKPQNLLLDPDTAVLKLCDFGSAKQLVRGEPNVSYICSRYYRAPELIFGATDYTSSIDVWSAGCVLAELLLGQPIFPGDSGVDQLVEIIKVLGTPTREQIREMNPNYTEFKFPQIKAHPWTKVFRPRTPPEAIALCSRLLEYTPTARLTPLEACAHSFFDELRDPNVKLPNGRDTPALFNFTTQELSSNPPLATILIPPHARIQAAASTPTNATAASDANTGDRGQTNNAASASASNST

For the compound `O=C1NC(=O)C(c2cnc3ccccn23)=C1c1cn2c3c(cc(F)cc13)CN(C(=O)N1CCCCC1)CC2` [LY2090314], the pIC50 was 9.05 in assay [1] and 8.82 in assay [2].
